Measurements published in US8426408B2, “Pyrimidine inhibitors of kinases” (AbbVie Inc., priority 2009, dated 2013).

Tests used:
Format in all cases: biochemical
Aurora B = biological target: T1, Aurora B (Homo sapiens, UniProt Q96GD4); test: Aurora B enzyme inhibition (time-resolved fluorescence, histone H3 peptide); settings: 1 mM ATP
T1 construct: Active Aurora B enzyme (recombinant residues 1-344)
In short: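 IC50s came from an exponential fit of inhibition against inhibitor concentration, with phosphorylation read as the 665/615 nm time-resolved fluorescence ratio after EDTA stop using Eu-anti-phospho-H3 and SA-APC. The 1 h reaction used Aurora B 1-344 plus GST-INCENP, biotin-histone H3 1-21 peptide and 1 mM ATP in pH 7.4 HEPES buffer.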

Aurora A = biological target: T2, Aurora A (Homo sapiens, UniProt O14965); test: Aurora A enzyme inhibition (time-resolved fluorescence, STK substrate-2); settings: 1 mM ATP
T2 sequence (O14965 1-403): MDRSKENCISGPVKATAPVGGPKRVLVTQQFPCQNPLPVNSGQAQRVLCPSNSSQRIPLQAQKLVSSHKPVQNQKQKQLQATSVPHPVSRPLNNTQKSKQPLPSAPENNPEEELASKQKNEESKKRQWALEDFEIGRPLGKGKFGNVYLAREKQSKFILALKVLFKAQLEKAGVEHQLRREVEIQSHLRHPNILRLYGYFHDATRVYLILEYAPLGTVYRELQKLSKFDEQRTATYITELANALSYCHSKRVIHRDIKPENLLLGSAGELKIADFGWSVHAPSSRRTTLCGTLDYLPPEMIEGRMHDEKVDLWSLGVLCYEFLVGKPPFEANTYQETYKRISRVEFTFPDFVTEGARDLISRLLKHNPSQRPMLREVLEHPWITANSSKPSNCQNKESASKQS
In short: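 Phosphorylation of biotinylated STK substrate-2 at 1 mM ATP, 1 h, Hepes buffer pH 7.4 (MgCl2, sodium orthovanadate, Triton X-100). After EDTA quench, 665/615 nm time-resolved fluorescence ratio read via europium anti-phospho antibody and SA-XL665; IC50 from exponential fit versus inhibitor concentration.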

KDR = KDR (Homo sapiens, UniProt P35968); test: KDR HTRF in vitro kinase assay; design: purified enzyme (His6-KDR 789-1354, MW 63 kD); His6 (N); settings: 1 mM ATP; read-out: KDR enzyme inhibition data (Ki)
In short: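 His6-KDR 789-1354 (7 ng/well) with 0.5 μM biotinylated peptide substrate and 1 mM ATP in HEPES pH 7.1, MgCl2/MnCl2, 60 min at room temperature. EDTA-quenched, detected by streptavidin-XL-665 plus Eu-kryptate anti-phosphotyrosine HTRF after 3 h; IC50 from 620/665 nm ratio.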

Measured: Ki

T1 sequence (Q96GD4 whole entry, the tested form may be a part): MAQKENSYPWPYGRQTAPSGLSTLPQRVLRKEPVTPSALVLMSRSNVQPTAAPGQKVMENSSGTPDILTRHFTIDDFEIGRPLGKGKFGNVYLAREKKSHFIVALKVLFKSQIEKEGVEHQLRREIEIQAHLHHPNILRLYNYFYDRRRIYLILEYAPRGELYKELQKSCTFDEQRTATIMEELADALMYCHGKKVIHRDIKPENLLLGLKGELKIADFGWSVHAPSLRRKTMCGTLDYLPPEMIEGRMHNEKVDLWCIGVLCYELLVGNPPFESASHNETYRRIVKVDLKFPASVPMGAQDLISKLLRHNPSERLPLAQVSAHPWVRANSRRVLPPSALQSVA
T1 sequence (Q9NQS7 826-918 partner limits assumed): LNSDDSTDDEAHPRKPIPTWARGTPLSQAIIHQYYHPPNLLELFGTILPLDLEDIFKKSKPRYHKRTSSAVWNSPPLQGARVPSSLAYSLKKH
Sequence of KDR (P35968 789-1354): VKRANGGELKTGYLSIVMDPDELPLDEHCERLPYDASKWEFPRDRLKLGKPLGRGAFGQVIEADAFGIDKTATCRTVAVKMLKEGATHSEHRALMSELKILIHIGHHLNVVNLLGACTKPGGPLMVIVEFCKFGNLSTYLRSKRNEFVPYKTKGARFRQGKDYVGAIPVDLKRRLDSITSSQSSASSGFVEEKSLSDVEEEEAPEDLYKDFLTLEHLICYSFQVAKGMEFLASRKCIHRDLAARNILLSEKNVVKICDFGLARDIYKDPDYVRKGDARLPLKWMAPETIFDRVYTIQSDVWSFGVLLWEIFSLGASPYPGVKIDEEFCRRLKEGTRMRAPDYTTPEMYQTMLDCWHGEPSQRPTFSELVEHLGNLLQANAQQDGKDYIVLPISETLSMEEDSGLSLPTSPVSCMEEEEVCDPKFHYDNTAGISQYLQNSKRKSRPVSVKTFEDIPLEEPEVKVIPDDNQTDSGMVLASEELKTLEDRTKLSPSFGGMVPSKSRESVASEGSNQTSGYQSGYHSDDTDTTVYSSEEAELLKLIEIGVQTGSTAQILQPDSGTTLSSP

Cc1nn(C)cc1Nc1ncc(Br)c(N[C@H]2[C@@H](C(N)=O)[C@@H]3C=C[C@H]2C3)n1 [Example 135, (1S,2S,3R,4R)-3-({5-bromo-2-[(1,3-dimethyl-1H-pyrazol-4-yl)amino]pyrimidin-4-yl}amino)bicyclo[2.2.1]hept-5-ene-2-carboxamide]
< 100 nM: all assays above

CNC(=O)Cn1cc(Nc2ncc(Cl)c(N[C@@H]3[C@H]4CC[C@H](C4)[C@@H]3C(N)=O)n2)cn1 [Example 88, (1R,2S,3R,4S)-3-{[5-chloro-2-({1-[2-(methylamino)-2-oxoethyl]-1H-pyrazol-4-yl}amino)pyrimidin-4-yl]amino}bicyclo[2.2.1]heptane-2-carboxamide]
< 100 nM: all assays above

CCn1cc(Nc2ncc(Br)c(N[C@@H]3[C@H](C(N)=O)[C@H]4C=C[C@@H]3C4)n2)cn1.CCn1cc(Nc2ncc(Br)c(N[C@H]3[C@@H](C(N)=O)[C@@H]4C=C[C@H]3C4)n2)cn1 (mixture of isomers) [Example 31, (1S,2S,3R,4R)-3-({5-bromo-2-[(1-ethyl-1H-pyrazol-4-yl)amino]pyrimidin-4-yl}amino)bicyclo[2.2.1]hept-5-ene-2-carboxamide and (1R,2R,3S,4S)-3-({5-bromo-2-[(1-ethyl-1H-pyrazol-4-yl)amino]pyrimidin-4-yl}amino)bicyclo[2.2.1]hept-5-ene-2-carboxamide]
< 100 nM: all assays above

NC(=O)[C@@H]1[C@H](Nc2nc(Nc3cnn([C@H]4CCOC4)c3)ncc2Cl)[C@H]2C=C[C@@H]1C2 [Example 108, (1S,2S,3R,4R)-3-{[5-chloro-2-({1-[(3S)-tetrahydrofuran-3-yl]-1H-pyrazol-4-yl}amino)pyrimidin-4-yl]amino}bicyclo[2.2.1]hept-5-ene-2-carboxamide]
< 100 nM: all assays above

NC(=O)[C@@H]1[C@H](Nc2nc(Nc3cnn(CC4CCO4)c3)ncc2Cl)[C@H]2C=C[C@@H]1C2 (stereo partly drawn) [Example 129, (1S,2S,3R,4R)-3-[(5-chloro-2-{[1-(oxetan-2-ylmethyl)-1H-pyrazol-4-yl]amino}pyrimidin-4-yl)amino]bicyclo[2.2.1]hept-5-ene-2-carboxamide]
< 100 nM: all assays above

CC(C)n1cc(Nc2ncc(Cl)c(N[C@H]3[C@@H](C(N)=O)[C@@H]4C=C[C@H]3C4)n2)cn1 [Example 98, (1S,2S,3R,4R)-3-({5-chloro-2-[(1-isopropyl-1H-pyrazol-4-yl)amino]pyrimidin-4-yl}amino)bicyclo[2.2.1]hept-5-ene-2-carboxamide]
< 100 nM: all assays above

NC(=O)[C@@H]1[C@H](Nc2nc(Nc3cnn(Cc4ccccc4)c3)ncc2Cl)[C@H]2C=C[C@@H]1C2 [Example 144, (1S,2S,3R,4R)-3-({2-[(1-benzyl-1H-pyrazol-4-yl)amino]-5-chloropyrimidin-4-yl}amino)bicyclo[2.2.1]hept-5-ene-2-carboxamide]
< 100 nM: all assays above

NC(=O)[C@@H]1[C@H](Nc2nc(Nc3cnn(C4CCC4)c3)ncc2Br)[C@H]2C=C[C@@H]1C2 [Example 123, (1S,2S,3R,4R)-3-({5-bromo-2-[(1-cyclobutyl-1H-pyrazol-4-yl)amino]pyrimidin-4-yl}amino)bicyclo[2.2.1]hept-5-ene-2-carboxamide]
< 100 nM: all assays above

COCCOCCn1cc(Nc2ncc(Br)c(N[C@H]3[C@@H](C(N)=O)[C@@H]4C=C[C@H]3C4)n2)cn1 [Example 110, (1S,2S,3R,4R)-3-{[5-bromo-2-({1-[2-(2-methoxyethoxy)ethyl]-1H-pyrazol-4-yl}amino)pyrimidin-4-yl]amino}bicyclo[2.2.1]hept-5-ene-2-carboxamide]
< 100 nM: all assays above

NC(=O)[C@@H]1[C@H](Nc2nc(Nc3cnn([C@@H]4CCOC4)c3)ncc2Br)[C@H]2C=C[C@@H]1C2 [Example 116, (1S,2S,3R,4R)-3-{[5-bromo-2-({1-[(3R)-tetrahydrofuran-3-yl]-1H-pyrazol-4-yl}amino)pyrimidin-4-yl]amino}bicyclo[2.2.1]hept-5-ene-2-carboxamide]
< 100 nM: all assays above

NC(=O)[C@@H]1[C@H](Nc2nc(Nc3cnn(Cc4ccc(Cl)cc4)c3)ncc2Cl)[C@H]2C=C[C@@H]1C2 [Example 162, (1S,2S,3R,4R)-3-[(5-chloro-2-{[1-(4-chlorobenzyl)-1H-pyrazol-4-yl]amino}pyrimidin-4-yl)amino]bicyclo[2.2.1]hept-5-ene-2-carboxamide]
< 100 nM: all assays above

NC(=O)[C@@H]1[C@H](Nc2nc(Nc3cnn(CCc4ccccc4)c3)ncc2Cl)[C@H]2C=C[C@@H]1C2 [Example 143, (1S,2S,3R,4R)-3-[(5-chloro-2-{[1-(2-phenylethyl)-1H-pyrazol-4-yl]amino}pyrimidin-4-yl)amino]bicyclo[2.2.1]hept-5-ene-2-carboxamide]
< 100 nM: all assays above

NC(=O)[C@@H]1[C@H](Nc2nc(Nc3cnn(Cc4ccccc4Cl)c3)ncc2Cl)[C@H]2C=C[C@@H]1C2 [Example 161, (1S,2S,3R,4R)-3-[(5-chloro-2-{[1-(2-chlorobenzyl)-1H-pyrazol-4-yl]amino}pyrimidin-4-yl)amino]bicyclo[2.2.1]hept-5-ene-2-carboxamide]
< 100 nM: all assays above

Cn1cc(Nc2ncc(C(F)(F)F)c(N[C@@H]3[C@@H]4CC[C@@H](C4)[C@@H]3C(N)=O)n2)cn1.Cn1cc(Nc2ncc(C(F)(F)F)c(N[C@H]3[C@H]4CC[C@H](C4)[C@H]3C(N)=O)n2)cn1 (mixture of isomers) [Example 20, (1S,2S,3R,4R)-3-{[2-[(1-methyl-1H-pyrazol-4-yl)amino]-5-(trifluoromethyl)pyrimidin-4-yl]amino}bicyclo[2.2.1]heptane-2-carboxamide and (1R,2R,3S,4S)-3-{[2-[(1-methyl-1H-pyrazol-4-yl)amino]-5-(trifluoromethyl)pyrimidin-4-yl]amino}bicyclo[2.2.1]heptane-2-carboxamide]
< 100 nM: all assays above

CN1CCN(CCn2cc(Nc3ncc(Cl)c(N[C@@H]4[C@H]5CC[C@H](C5)[C@@H]4C(N)=O)n3)cn2)CC1 [Example 90, (1R,2S,3R,4S)-3-{[5-chloro-2-({1-[2-(4-methylpiperazin-1-yl)ethyl]-1H-pyrazol-4-yl}amino)pyrimidin-4-yl]amino}bicyclo[2.2.1]heptane-2-carboxamide]
< 100 nM: all assays above

NC(=O)[C@@H]1[C@H](Nc2nc(Nc3cnn(-c4ccccc4)c3)ncc2Cl)[C@H]2C=C[C@@H]1C2 [Example 174, (1S,2S,3R,4R)-3-({5-chloro-2-[(1-phenyl-1H-pyrazol-4-yl)amino]pyrimidin-4-yl}amino)bicyclo[2.2.1]hept-5-ene-2-carboxamide]
< 100 nM: all assays above

COc1cccc(Cn2cc(Nc3ncc(Br)c(N[C@H]4[C@@H](C(N)=O)[C@@H]5C=C[C@H]4C5)n3)cn2)c1 [Example 159, (1S,2S,3R,4R)-3-[(5-bromo-2-{[1-(3-methoxybenzyl)-1H-pyrazol-4-yl]amino}pyrimidin-4-yl)amino]bicyclo[2.2.1]hept-5-ene-2-carboxamide]
< 100 nM: all assays above

Cc1cccc(Cn2cc(Nc3ncc(Cl)c(N[C@H]4[C@@H](C(N)=O)[C@@H]5C=C[C@H]4C5)n3)cn2)c1 [Example 178, (1S,2S,3R,4R)-3-[(5-chloro-2-{[1-(3-methylbenzyl)-1H-pyrazol-4-yl]amino}pyrimidin-4-yl)amino]bicyclo[2.2.1]hept-5-ene-2-carboxamide]
< 100 nM: all assays above

COc1ccc(Cn2cc(Nc3ncc(Cl)c(N[C@H]4[C@@H](C(N)=O)[C@@H]5C=C[C@H]4C5)n3)cn2)cc1F [Example 192, (1S,2S,3R,4R)-3-[(5-chloro-2-{[1-(3-fluoro-4-methoxybenzyl)-1H-pyrazol-4-yl]amino}pyrimidin-4-yl)amino]bicyclo[2.2.1]hept-5-ene-2-carboxamide]
< 100 nM: all assays above
